Assay results: US20260034042A1, “Composition with Improved SPF and UVA Photoprotection” (Symrise AG, priority 2022, published 2026)

Columns and labels:
Format in all cases: physicochemical
[1] = Determination of the in-vitro SPF on PMMA plates (Labsphere UV-200S, Colipa method)
Method: (§1) Determination of the in-vitro SPFs and UVA-PF
(§2) The SPF boosting and UVA-PF boosting test is carried out as in-vitro determination of SPFs.
(§3) Principle: The formulation to be tested (emulsion, solution) is weighed on PMMA plates with the help of an analytical balance. The formulation if distributed and incorporated on the plate using a method corresponding to the formulation. The thus prepared plates are then measured on a Labsphere device and the results are calculated as SPF with a suitable software.
(§4) PMMA plates (Polymethylmethacrylate), measuring 3 cm×8.5 cm (WVVW5 plates based on […] “Determination of UVA photoprotection in vitro” with 5μ roughness by Schonberg GmbH & Co. AG) are used to perform an SPF measurement.
(§5) A reference sample is obtained by distributing 25 to 28 mg glycerin (99.5%) with the index finger on the roughened side of the PMMA plate. The glycerin film must be very thin and uniform. Subsequently, this plate is stored for at least 2 hours.
(§6) The reference plate is measured with the following transmission values:
(§7) The sample to be measured should be homogeneously mixed with a spatula before application. 1.2 mg/cm2 of sample is evenly distributed in several rows of dots on the PMMA plate. In order to minimise the evaporation of the sample during weighing, this process must be carried out quickly. The sample is then evenly distributed by hand with a finger previously saturated with the sample material. The distribution takes place in two phases: • Phase 1: Fast and uniform distribution with a slight pressure until the emulsion is broken. • Phase 2: The sample is massaged into the rough surface with strong pressure and the process should last 30 seconds. In this context under strong pressure means that when massaged on a scale, this indicates at least […].
(§8) Sun oils: The product quantity is generally 1.3 mg/cm^2. For strongly spreading oils, less product is applied, as the amount of oil cannot be “absorbed” from the plate. Then the amount of application should be reduced to 1.0-0.75 mg/cm^2. Application method here is also the 30 s fast/light and 30 s strong method. • Sun sprays: The “30/30 method” applies here (especially for thicker sprays). • For very liquid sprays (similar to water): • Fast and uniform distribution with a slight pressure, until the emulsion “breaks”. • The process should take 45 s.
(§9) The finished sample plates are stored dust-free and measured at the earliest after 15 minutes.
(§10) The samples are measured using the UV-200S device, using the specified Colipa method. The Labsphere user manual also applies.
(§11) A new “Study” is opened via File and then the “Colipa Guideline 2011” method is selected under the heading “Study”. In the new window “Colipa Method Options” the number of plates (3 plates), the measuring points per plate (5 measuring points) and the in vivo SPF and, if necessary, the irradiance intensity of the external irradiance device (Solar Simulator Irradiance) entered. • The irradiance set on the external device is 765 W/m2 as standard. The complete naming of the sample is done via Study”, “Study Information”.
At the beginning of the measurement, a blank value of the glycerin reference sample is measured (“scan blank plate”). In order to determine the SPF of a sample, a total of 15 measuring points (3 plates of 5 measuring points) are then created (“Scan Location”).
• After the first measurement run, the device calculates an irradiation dose (Irradiation Dose/J/cm2) and the duration (exposure time) for each plate. The plates are irradiated in the external irradiation device (irradiation duration=average value of the 3 plates).
The calculation of irradiation dose and exposure time is based on the irradiance (765 W/m^2) set on the external device. […]

[2] = Determination of the in-vitro UVA-PF on PMMA plates (Labsphere UV-200S, Colipa method, post irradiation)
Method: UVA-photoprotection is expressed in UVA-protection factor (UVA-PF). UVA-PF is similar to SPF in that it is a measure of how well a sunscreen protects the skin from UVA radiation. It is performed in a similar manner by irradiating the skin with UVA. This can be done in vivo with human skin or in vitro, where it is performed by applying the sunscreen to an PMMA plate (Polymethymethacrylate plate) and measuring how much UVA passes through the slide with or without the sunscreen. To characterize protection from UVA radiation, the PPD (Persistent Pigment Darkening) method, which measures the color of the skin observed 2 to 4 hours after exposure of the skin to UVA radiation, is used. The PPD method appears to correlate well with the in vitro UVA-PF testing.
as §1, §2, §3, §4, §5, §6, §7, §8, §9, §10, §11
(§12) At the beginning of the measurement, a blank value of the glycerin reference sample is measured (“scan blank plate”). […]

[3] = Critical wavelength of the sunscreen formulation (post irradiation)
Excerpt: The term “broad-spectrum photo-protection” means photo-protection from both UVA and UVB radiation. Broad-spectrum is based on the breadth of protection offered by a sunscreen in the UVA and UVB spectrums. In order for a sunscreen to be considered broad-spectrum, it must have achieved a critical wavelength of at least 370 nm, meaning that 10% of the protection that the sunscreen offers has to be for wavelengths above 370 nm. A critical wavelength>370 nm is a rigorous minimum that sunscreen products should achieve to be labelled as broad-spectrum”.
The term “critical wavelength” is defined as the wavelength at which the area under the UV protection curve (% protection versus wavelength) represents 90% of the total area under the curve in the UV region (280-400 nm). […]
In order to calculate the critical wavelength (λc), mathematical integration of the measured spectral absorbance from […] to 400 nm is performed to calculate the area beneath the absorbance curve. The critical wavelength value is based upon the inherent shape and breadth of the absorbance cure, not its amplitude. The critical wavelength is the wavelength below which 90% of the area under the absorbance curve sides. […]
The samples are measured using the UV-200S device, using the specified Colipa method. […]
as §12

[4] = 1.0% by weight added to sunscreen with modern organic UV-filter mixture (Example 1; control SPF 31.7)
[5] = 1.0% by weight, classic organic UV-filter combination (Example 3)
[6] = 1.0% by weight, classic organic UV-filter combination (Example 3; control SPF 33.7)
[7] = 1.0% by weight, modern organic UV-filter mixture (Example 1)
[8] = 3.0% by weight added to sunscreen with modern organic UV-filter mixture (Example 1; control SPF 31.7)
[9] = 3.0% by weight, classic organic UV-filter combination (Example 3)
[10] = 3.0% by weight, classic organic UV-filter combination (Example 3; control SPF 33.7)
[11] = 3.0% by weight, modern organic UV-filter mixture (Example 1)
[12] = 3.0%, modern organic UV-filter mixture (Example 1)

Row | Compound | in vitro SPF [1, 4] | in vitro SPF higher than reference sample without MAA [1, 5] | in vitro SPF [1, 6] | in vitro SPF higher than reference sample without MAA [1, 7] | in vitro SPF [1, 8] | in vitro SPF higher than reference sample without MAA [1, 9] | in vitro SPF [1, 10] | in vitro SPF higher than reference sample without MAA [1, 11] | improvement of the UVA-PF compared to the control sample [2, 12] | improvement of the UVA-PF compared to the control sample ([2]; 1.0%, classic organic UV-filter combination (Example 3)) | improvement of the UVA-PF compared to the control sample ([2]; 1.0%, modern organic UV-filter mixture (Example 1)) | improvement of the UVA-PF compared to the control sample ([2]; 3.0%, classic organic UV-filter combination (Example 3)) | critical wavelength ([3]; 1.0% and 3.0%, classic sunscreen composition (Example 3; without MAA 380 nm)) | critical wavelength ([3]; 3.0%, modern sunscreen composition (Example 1; without MAA 378 nm)) | in vitro SPF higher than control/reference sample without MAA ([1]; 1.0% by weight, modern organic UV-filter mixture of Example 2) | in vitro SPF ([1]; 1.0% by weight, modern organic UV-filter mixture of Example 2 (control SPF 52.4)) | improvement of the UVA-PF compared to the control sample ([2]; 1.0%, modern organic UV-filter mixture of Example 2)
1 | CCOC(=O)CNC1=C/C(=N/c2ccccc2)CC(C)(C)C1 [MAA-1, ethyl 2-[[5,5-dimethyl-3-phenylimino-cyclohexen-1-yl]amino]acetate] | 53.4 | 5.0% | 35.4 | 68.5% | 86.1 | 61.4% | 54.4 | 171.6% | 9.35% | – | – | – | – | – | – | – | –
2 | COc1ccc(/N=C2\CC(C)(C)CC3=C2SCC(C(=O)O)N3)cc1OC (centres unmarked) [MAA-13, 8-((3,4-dimethoyxphenyl)imino)-6,6-dimethyl-3,4,5,6,7,8-hexahydro-2-H-benzol[b][1,4]thiazine-3-carboxylic acid] | 34.4 | 7.7% | 36.3 | 8.52% | 39.8 | 87.2% | 63.1 | 25.6% | 30.75% | 3.2% | 14.8% | 5.2% | 381 nm | 379 nm | – | – | –
3 | CC1(C)CC(NCC(=O)O)=C/C(=N/c2ccccc2)C1 [MAA-20, 2-[(5,5-dimethyl-3-phenylimino-cyclohexen-1-yl)amino]acetic acid] | – | – | – | – | – | – | – | – | – | – | – | – | – | – | 9% | 57.1 | 18.2%
